Biological target: T1, human TRPC6 (Homo sapiens, UniProt Q9Y210)
T1 construct: expressed in transfected cells
T1 sequence (Q9Y210 1-931): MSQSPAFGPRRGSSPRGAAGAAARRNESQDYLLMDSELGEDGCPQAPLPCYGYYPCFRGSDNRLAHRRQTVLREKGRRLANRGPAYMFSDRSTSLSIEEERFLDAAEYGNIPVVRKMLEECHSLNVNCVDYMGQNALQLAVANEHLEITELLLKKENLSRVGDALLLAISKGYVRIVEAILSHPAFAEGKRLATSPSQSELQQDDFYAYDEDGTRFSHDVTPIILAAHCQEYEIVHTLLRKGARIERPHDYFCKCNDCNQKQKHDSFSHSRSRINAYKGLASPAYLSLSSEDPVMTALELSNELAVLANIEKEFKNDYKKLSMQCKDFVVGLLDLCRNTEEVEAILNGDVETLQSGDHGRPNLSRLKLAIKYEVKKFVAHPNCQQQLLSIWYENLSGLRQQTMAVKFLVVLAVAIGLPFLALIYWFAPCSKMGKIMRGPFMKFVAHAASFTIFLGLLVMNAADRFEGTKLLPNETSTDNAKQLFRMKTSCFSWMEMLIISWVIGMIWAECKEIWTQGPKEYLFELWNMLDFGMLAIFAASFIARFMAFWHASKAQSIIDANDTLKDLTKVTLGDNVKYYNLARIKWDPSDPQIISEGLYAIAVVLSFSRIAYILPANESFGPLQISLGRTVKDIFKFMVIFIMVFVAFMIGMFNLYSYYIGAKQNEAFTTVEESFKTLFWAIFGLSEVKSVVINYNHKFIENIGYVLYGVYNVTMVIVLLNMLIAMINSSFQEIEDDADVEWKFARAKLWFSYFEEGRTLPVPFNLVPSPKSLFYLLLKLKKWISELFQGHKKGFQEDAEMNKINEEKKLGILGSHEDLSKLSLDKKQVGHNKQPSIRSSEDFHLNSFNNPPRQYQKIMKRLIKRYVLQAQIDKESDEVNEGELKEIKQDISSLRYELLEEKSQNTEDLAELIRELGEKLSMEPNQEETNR
Assay: TRPC6 calcium flux assay (FLIPR, OAG-stimulated calcium influx)
Format: cell-based
Details: HEK293 cells stably transfected with human TRPC6, read-out: hTRPC6 Potency
How it was run: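 IC50 derived by plotting background-corrected peak fluorescence (180 s window, normalized to OAG-triggered signal vs buffer) against dose. Stable human TRPC6 HEK293 line was dye-loaded, exposed to compound 25 min, then challenged with 50 uM final OAG in 2 mM Ca2+ HEPES buffer pH 7.2, 0.5% DMSO.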

| IC50 [nM] | SMILES |
| --- | --- |
| 1200 | CN[C@@H]1CN(c2nc3cc(F)ccc3n2CC(=O)N(C)CC(F)(F)F)CC[C@H]1F [Example 479, 2-(5-fluoro-2-((3R,4R)-4-fluoro-3-(methylamino)piperidin-1-yl)-1H-benzo[d]imidazol-1-yl)-N-methyl-N-(2,2,2-trifluoroethyl)acetamide] |
| 1200 | CC1CN(c2nc3ccc(F)cc3n2CC(=O)N(C)CC(F)(F)F)CC1N (stereo not shown) [Example 480, 2-(2-(3-amino-4-methylpyrrolidin-1-yl)-6-fluoro-1H-benzo[d]imidazol-1-yl)-N-methyl-N-(2,2,2-trifluoroethyl)acetamide] |
| 2400 | CN(CC(F)(F)F)C(=O)Cn1c(N2CC[C@@H](O)[C@H](N)C2)nc2ccc(F)cc21 [Example 481, 2-(2-((3R,4R)-3-amino-4-hydroxypiperidin-1-yl)-6-fluoro-1H-benzo[d]imidazol-1-yl)-N-methyl-N-(2,2,2-trifluoroethyl)acetamide] |
| 2740 | CN(CC(F)(F)F)C(=O)Cn1c(N2CCC(F)(F)[C@H](N)C2)nc2cc(F)ccc21 [Example 482, (R)-2-(2-(3-amino-4,4-difluoropiperidin-1-yl)-5-fluoro-1H-benzo[d]imidazol-1-yl)-N-methyl-N-(2,2,2-trifluoroethyl)acetamide] |
| 2740 | CO[C@@H]1CCN(c2nc3cc(F)ccc3n2CC(=O)N(C)CC(F)(F)F)C[C@H]1N [Example 483, 2-(2-((3R,4R)-3-amino-4-methoxypiperidin-1-yl)-5-fluoro-1H-benzo[d]imidazol-1-yl)-N-methyl-N-(2,2,2-trifluoroethyl)acetamide] |
| > 3750 | CO[C@@H]1CCN(c2nc3ccc(F)cc3n2CC(=O)N(C)CC(F)(F)F)C[C@H]1N [Example 485, 2-(2-((3R,4R)-3-amino-4-methoxypiperidin-1-yl)-6-fluoro-1H-benzo[d]imidazol-1-yl)-N-methyl-N-(2,2,2-trifluoroethyl)acetamide] |
| > 1750 | CN(CC(F)(F)F)C(=O)Cn1c(N2CCC(F)(CN)C2)nc2ccc(F)cc21 (stereo not shown) [Example 486, 2-(2-(3-(aminomethyl)-3-fluoropyrrolidin-1-yl)-6-fluoro-1H-benzo[d]imidazol-1-yl)-N-methyl-N-(2,2,2-trifluoroethyl)acetamide] |
| > 3750 | CN(CC(F)(F)F)C(=O)Cn1c(N2CCC(F)(CN)C2)nc2cc(F)ccc21 (stereo not shown) [Example 487, 2-(2-(3-(aminomethyl)-3-fluoropyrrolidin-1-yl)-5-fluoro-1H-benzo[d]imidazol-1-yl)-N-methyl-N-(2,2,2-trifluoroethyl)acetamide] |
| > 3750 | CN(CC(F)(F)F)C(=O)Cn1c(N2CC[C@H]3OCCN[C@@H]3C2)nc2ccc(F)cc21 [Example 488, 2-(6-fluoro-2-((4aR,8aR)-hexahydro-2H-pyrido[4,3-b][1,4]oxazin-6(5H)-yl)-1H-benzo[d]imidazol-1-yl)-N-methyl-N-(2,2,2-trifluoroethyl)acetamide] |
| > 3750 | CN(CC(F)(F)F)C(=O)Cn1c(N2CC[C@H](N)C2)nc2ccc(F)cc21 [Example 489, (S)-2-(2-(3-aminopyrrolidin-1-yl)-6-fluoro-1H-benzo[d]imidazol-1-yl)-N-methyl-N-(2,2,2-trifluoroethyl)acetamide] |
| > 3750 | CN(CC(F)(F)F)C(=O)Cn1c(N2CC[C@@H](N)C2)nc2ccc(F)cc21 [Example 490, (R)-2-(2-(3-aminopyrrolidin-1-yl)-6-fluoro-1H-benzo[d]imidazol-1-yl)-N-methyl-N-(2,2,2-trifluoroethyl)acetamide] |
| > 3750 | CN(CC(F)(F)F)C(=O)Cn1c(N2CC[C@@H](CN)C2)nc2ccc(F)cc21 [Example 491, (S)-2-(2-(3-(aminomethyl)pyrrolidin-1-yl)-6-fluoro-1H-benzo[d]imidazol-1-yl)-N-methyl-N-(2,2,2-trifluoroethyl)acetamide] |
| > 3750 | CN(CC(F)(F)F)C(=O)Cn1c(N2CC[C@@H]3OCCN[C@H]3C2)nc2cc(F)ccc21 [Example 493, 2-(5-fluoro-2-((4aS,8aS)-hexahydro-2H-pyrido[4,3-b][1,4]oxazin-6(5H)-yl)-1H-benzo[d]imidazol-1-yl)-N-methyl-N-(2,2,2-trifluoroethyl)acetamide] |
| 12.6 | N[C@@H]1CN(c2nc3cc(F)ccc3n2Cc2ncc(Cl)cn2)CC[C@H]1O [Example 494, (3R,4R)-3-amino-1-(1-((5-chloropyrimidin-2-yl)methyl)-5-fluoro-1H-benzo[d]imidazol-2-yl)piperidin-4-ol] |
| 12.7 | N[C@@H]1CN(c2nc3ccc(Cl)cc3n2CC(=O)N2CCOCC2)CC[C@H]1F [Example 495, 2-(2-((3R,4R)-3-amino-4-fluoropiperidin-1-yl)-6-chloro-1H-benzo[d]imidazol-1-yl)-1-morpholinoethanone] |

Continued, compound first:

| SMILES | IC50 [nM] |
| --- | --- |
| CN(CC(F)(F)F)C(=O)Cn1c(N2CCC(F)(F)[C@H](N)C2)nc2ccc(F)cc21 [Example 465, (R)-2-(2-(3-amino-4,4-difluoropiperidin-1-yl)-6-fluoro-1H-benzo[d]imidazol-1-yl)-N-methyl-N-(2,2,2-trifluoroethyl)acetamide] | 86.7 |
| CO[C@H]1CCN(c2nc3ccc(F)cc3n2Cc2ncc(Cl)cn2)C[C@H]1N [Example 467, (3R,4S)-1-(1-((5-chloropyrimidin-2-yl)methyl)-6-fluoro-1H-benzo[d]imidazol-2-yl)-4-methoxypiperidin-3-amine] | 123 |
| CN(C)C(=O)Cn1c(N2CC[C@@H](F)[C@H](N)C2)nc2ccc(OC(F)(F)F)cc21 [Example 468, 2-(2-((3R,4R)-3-amino-4-fluoropiperidin-1-yl)-6-(trifluoromethoxy)-1H-benzo[d]imidazol-1-yl)-N,N-dimethylacetamide] | 178 |
| CN[C@@H]1CN(c2nc3ccc(F)cc3n2CC(=O)N(C)CC(F)(F)F)CC[C@H]1F [Example 469, 2-(6-fluoro-2-((3R,4R)-4-fluoro-3-(methylamino)piperidin-1-yl)-1H-benzo[d]imidazol-1-yl)-N-methyl-N-(2,2,2-trifluoroethyl)acetamide] | 190 |
| N[C@@H]1CN(c2nc3cc(Br)ccc3n2CC(=O)N2CCC2)CC[C@H]1F [Example 470, 2-(2-((3R,4R)-3-amino-4-fluoropiperidin-1-yl)-5-bromo-1H-benzo[d]imidazol-1-yl)-1-(azetidin-1-yl)ethan-1-one] | 219 |
| CN(C)C(=O)Cn1c(N2CC[C@H](F)[C@H](N)C2)nc2cc(Cl)ccc21 [Example 471, 2-(2-((3R,4S)-3-amino-4-fluoropiperidin-1-yl)-5-chloro-1H-benzo[d]imidazol-1-yl)-N,N-dimethylacetamide] | 360 |
| CN(CC(F)(F)F)C(=O)Cn1c(N2CCCC3(CCCN3)C2)nc2ccc(F)cc21 (stereo not shown) [Example 472, 2-(6-fluoro-2-(1,7-diazaspiro[4.5]decan-7-yl)-1H-benzo[d]imidazol-1-yl)-N-methyl-N-(2,2,2-trifluoroethyl)acetamide] | 383 |
| N[C@@H]1CN(c2nc3cc(C(F)(F)F)ccc3n2CC(=O)N2CCOCC2)CC[C@H]1F [Example 473, 2-(2-((3R,4R)-3-amino-4-fluoropiperidin-1-yl)-5-(trifluoromethyl)-1H-benzo[d]imidazol-1-yl)-1-morpholinoethan-1-one] | 398 |
| CN(C)C(=O)Cn1c(N2CC[C@@H](F)[C@H](N)C2)nc2cc(OC(F)(F)F)ccc21 [Example 474, 2-(2-((3R,4R)-3-amino-4-fluoropiperidin-1-yl)-5-(trifluoromethoxy)-1H-benzo[d]imidazol-1-yl)-N,N-dimethylacetamide] | 411 |
| N[C@@H]1CN(c2nc3cc(OC(F)(F)F)ccc3n2CC(=O)N2CCOCC2)CC[C@H]1F [Example 475, 2-(2-((3R,4R)-3-amino-4-fluoropiperidin-1-yl)-5-(trifluoromethoxy)-1H-benzo[d]imidazol-1-yl)-1-morpholinoethan-1-one] | 620 |
| COc1cc(F)cc2nc(N3CC[C@@H](F)[C@H](N)C3)n(Cc3ccc(C#N)cn3)c12 [Example 476] | 763 |
| CO[C@H]1CCN(c2nc3cc(F)ccc3n2Cc2ncc(Cl)cn2)C[C@H]1N [Example 477, (3R,4S)-1-(1-((5-chloropyrimidin-2-yl)methyl)-5-fluoro-1H-benzo[d]imidazol-2-yl)-4-methoxypiperidin-3-amine] | 1030 |
| N[C@@H]1CN(c2nc3cc(C(F)(F)F)ccc3n2CC(=O)N2CCOCC2)CC[C@@H]1F [Example 478, 2-(2-((3R,4S)-3-amino-4-fluoropiperidin-1-yl)-5-(trifluoromethyl)-1H-benzo[d]imidazol-1-yl)-1-morpholinoethan-1-one] | 1050 |
